# Biological target: T1, human mGlu5a receptor (Homo sapiens, UniProt P41594)
# T1 construct: expressed in transfected cells
# Experiment: Intracellular Ca2+ mobilization assay
# Format: cell-based
# Conditions: for Emax: HEK293, maximal response in % of the maximal stimulatory effect obtained with saturating concentrations of L-glutamate, HEK-293 human mGlu5a cells, L-glutamate at EC20, read-out: Efficacy (%); for EC50: HEK-293 cells stably transfected with human mGlu5a receptor, pre-incubation 10-30 min with test compound, then L-glutamate at EC20 (typically around 80 μM), Fluo-4AM fluorescence, read-out: EC50 (nM) mGluR5 PAM
# Experimental: A monoclonal HEK-293 cell line stably transfected with a cDNA encoding for the human mGlu5a receptor was generated; for the work with mGlu5 Positive Allosteric Modulators (PAMs), a cell line with low receptor expression levels and low constitutive receptor activity was selected to allow the differentiation of agonistic versus PAM activity. Cells were cultured according to standard protocols (Freshney, 2000) in Dulbecco's Modified Eagle Medium with high glucose supplemented with 1 mM glutamine, 10% (vol/vol) heat-inactivated bovine calf serum, Penicillin/Streptomycin, 50 μg/ml hygromycin and 15 μg/ml blasticidin (all cell culture reagents and antibiotics from Invitrogen, Basel, Switzerland).
# About 24 hrs before an experiment, 5×10^4 cells/well were seeded in poly-D-lysine coated, black/clear-bottomed 96-well plates. The cells were loaded with 2.5 μM Fluo-4AM in loading buffer (1×HBSS, 20 mM HEPES) for 1 hr at 37° C. and washed five times with loading buffer. The cells were transferred into a Functional Drug Screening System 7000 (Hamamatsu, Paris, France), and 11 half logarithmic serial dilutions of test compound at 37° C. were added and the cells were incubated for 10-30 min. with on-line recording of fluorescence. Following this pre-incubation step, the agonist L-glutamate was added to the cells at a concentration corresponding to EC20 (typically around 80 μM) with on-line recording of fluorescence; in order to account for day-to-day variations in the responsiveness of cells, the EC20 of glutamate was determined immediately ahead of each experiment by recording of a full dose-response curve of glutamate.
# Responses were measured as peak increase in fluorescence minus basal (i.e. fluorescence without addition of L-glutamate), normalized to the maximal stimulatory effect obtained with saturating concentrations of L-glutamate. Graphs were plotted with the % maximal stimulatory using XLfit, a curve fitting program that iteratively plots the data using Levenburg Marquardt algorithm. The single site competition analysis equation used was y=A+((B−A)/(1+((x/C)D))), where y is the % maximal stimulatory effect, A is the minimum y, B is the maximum y, C is the EC50, x is the log 10 of the concentration of the competing compound and D is the slope of the curve (the Hill Coefficient). From these curves the EC50 (concentration at which half maximal stimulation was achieved), the Hill coefficient as well as the maximal response in % of the maximal stimulatory effect obtained with saturating concentrations of L-glutamate were calculated.
# A depression of the signal observed after addition of the EC20 concentration of L-glutamate was indicative of an inhibitory activity of the test compound.
# T1 sequence (P41594 21-1180 isoform P41594-2 limits assumed): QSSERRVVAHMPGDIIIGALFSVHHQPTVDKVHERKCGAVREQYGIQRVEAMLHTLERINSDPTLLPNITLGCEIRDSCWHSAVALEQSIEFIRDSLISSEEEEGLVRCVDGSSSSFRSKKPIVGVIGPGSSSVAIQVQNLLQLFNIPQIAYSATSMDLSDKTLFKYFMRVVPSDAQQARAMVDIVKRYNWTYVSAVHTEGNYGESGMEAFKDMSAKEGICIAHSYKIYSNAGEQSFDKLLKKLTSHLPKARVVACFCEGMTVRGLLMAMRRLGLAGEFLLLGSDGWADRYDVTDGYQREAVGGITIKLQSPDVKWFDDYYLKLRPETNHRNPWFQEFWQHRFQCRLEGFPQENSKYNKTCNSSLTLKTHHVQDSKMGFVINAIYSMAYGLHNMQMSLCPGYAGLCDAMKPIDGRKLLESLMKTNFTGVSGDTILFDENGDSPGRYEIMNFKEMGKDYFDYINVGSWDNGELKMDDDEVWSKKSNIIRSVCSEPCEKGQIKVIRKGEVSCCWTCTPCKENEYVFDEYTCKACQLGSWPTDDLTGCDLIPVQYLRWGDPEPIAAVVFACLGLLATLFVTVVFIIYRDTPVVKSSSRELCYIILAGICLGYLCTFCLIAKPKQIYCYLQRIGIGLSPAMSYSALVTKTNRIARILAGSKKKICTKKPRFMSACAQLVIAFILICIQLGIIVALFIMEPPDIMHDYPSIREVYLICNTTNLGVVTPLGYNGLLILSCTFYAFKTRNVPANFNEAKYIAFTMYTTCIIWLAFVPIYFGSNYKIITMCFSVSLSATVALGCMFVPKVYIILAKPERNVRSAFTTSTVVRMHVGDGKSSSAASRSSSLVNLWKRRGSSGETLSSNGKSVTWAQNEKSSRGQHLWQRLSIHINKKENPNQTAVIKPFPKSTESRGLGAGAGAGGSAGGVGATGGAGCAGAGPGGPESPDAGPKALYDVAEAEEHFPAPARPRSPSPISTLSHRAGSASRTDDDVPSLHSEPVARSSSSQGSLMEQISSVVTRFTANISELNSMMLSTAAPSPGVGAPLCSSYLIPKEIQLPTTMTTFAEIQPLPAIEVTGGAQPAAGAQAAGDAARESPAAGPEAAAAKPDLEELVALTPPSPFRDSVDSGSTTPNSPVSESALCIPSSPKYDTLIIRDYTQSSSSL
Emax,EC50,SMILES
119%,174 nM,"O=C1OCCCN1Cc1ccc(C#Cc2ccccc2)cn1 [Example 34, 3-(5-Phenylethynyl-pyridin-2-ylmethyl)-[1,3]oxazinan-2-one]"
119%,68 nM,"CN1CCN(Cc2ccc(C#Cc3ccccc3)cn2)C1=O [Example 35, 1-Methyl-3-(5-phenylethynyl-pyridin-2-ylmethyl)-imidazolidin-2-one]"
82%,84 nM,"CC1(C)CCC(=O)N1Cc1ccc(C#Cc2ccccc2)cn1 [Example 36, 5,5-Dimethyl-1-(5-phenylethynyl-pyridin-2-ylmethyl)-pyrrolidin-2-one]"
84%,103 nM,"O=C1N(Cc2ccc(C#Cc3ccccc3)cn2)CCN1c1ccccc1 [Example 37, 1-Phenyl-3-(5-phenylethynyl-pyridin-2-ylmethyl)-imidazolidin-2-one]"
94%,161 nM,"CC1(C)CCC(=O)N(Cc2ccc(C#Cc3ccccc3)cn2)C1 [Example 38, 5,5-Dimethyl-1-(5-phenylethynyl-pyridin-2-ylmethyl)-piperidin-2-one]"
123%,140 nM,"CN1CCCN(Cc2ccc(C#Cc3ccccc3)cn2)C1=O [Example 40, 1-Methyl-3-(5-phenylethynyl-pyridin-2-ylmethyl)-tetrahydro-pyrimidin-2-one]"
120%,631 nM,"O=C1OCCN1Cc1ncc(C#Cc2ccccc2)cn1 [Example 42, 3-(5-Phenylethynyl-pyrimidin-2-ylmethyl)-oxazolidin-2-one]"
84%,195 nM,"CN(c1ncc(C#Cc2ccccc2)cn1)C1CCOCC1 [Example 43, Methyl-(5-phenylethynyl-pyrimidin-2-yl)-(tetrahydro-pyran-4-yl)-amine]"
103%,338 nM,CN(c1ccc(C#Cc2ccccc2)cn1)C1CCOCC1 [Example 44]

# — patent publication US8716316B2 (Hoffmann-La Roche Inc., priority 2009, dated 2014)
